Measurements reported in PMC4382466 (Toxicologic pathology, 2014).
Like-named read-outs stand apart in the source and are kept apart here.

What was measured:
[1] = design: species or system Fischer 344 rats; conditions: in vivo, po
Fischer 344 rats [2] = conditions: rat, in vivo
Fischer 344 rats [3] = conditions: rat, in vivo; remark: listed apart in the source
Fischer 344 rats [4] = test: Kidney and urinary bladder histopathology; format: in vivo; conditions: 6 animals
γH2AX [5] = test: γH2AX immunofluorescence staining of kidney sections; format: in vivo, Fischer 344 rats; conditions: five imaged fields, one rat/sex/group
γH2AX [6] = test: γH2AX immunofluorescence staining of bone marrow; format: in vivo, Fischer 344 rats
Fischer 344 rats [7] = test: Clinical signs and body weights; format: in vivo; conditions: n=6/sex/group
Fischer 344 rats [8] = conditions: rat, in vivo; remark: listed apart in the source
rats = conditions: one-tenth the mouse LD10, ref NationalTechnicalInformationService; cited from earlier work
dogs = conditions: two times the mouse LD50; ref NationalTechnicalInformationService; cited from earlier work
Fischer 344 rats [9] = test: Mesna as mitigating co-treatment of batracylin-induced toxicity; conditions: male rats, mesna study, Day 5
[10] = oral batracylin 590 mg/m^2; ref Ames et al., 1991; cited from earlier work
[11] = male, Fischer 344, rat, 16 mg/kg
[12] = male, Fischer 344, rat, 32 mg/kg

Compound: Nc1ccc2c(c1)CN1C(=O)c3ccccc3C1=N2 [batracylin, 8-aminoisoindolo[1,2-b]quinazolin-12(10H)-one]
- AUC(0-inf) [1, 11]: 118 ng·h/mL
- AUC(0-t) [1, 11]: 98.3 ng·h/mL
- Cmax [1, 11]: 11.1 ng/mL
- Tmax [1, 11]: 4 h
- k el [1, 11]: 4.83e-05 s⁻¹
- half-life ([1]; male, Fischer 344, rat, 16 mg/kg, Half-life): 4 h
- AUC(0-inf) [1, 12]: 144 ng·h/mL
- AUC(0-t) [1, 12]: 112 ng·h/mL
- Cmax [1, 12]: 11.8 ng/mL
- Tmax [1, 12]: 4 h
- half-life [1, 12]: 11.1 h
- k el [1, 12]: 1.72e-05 s⁻¹
- half-life ([1]; male, Fischer 344, rat, 32 mg/kg, Half-life): 11 h
- half-life ([1]; male, Fischer 344, rat, 32 mg/kg, half-life): 4 to 11 h
- Lymphocytes, % of the total WBC population (Fischer 344 rats [2]): 19%
- Neutrophils, % of the total WBC population (Fischer 344 rats [2]): 78%
- Incidence of visibly red urine (Fischer 344 rats [3]): 4 of the 6
- Kidney: non-inflammatory tubular degeneration, severity (incidence) (Fischer 344 rats [4]; 16 mg/kg/day po x4 days, females): Mild (4), Moderate (2)
- Kidney: non-inflammatory tubular degeneration, severity (incidence) (Fischer 344 rats [4]; 16 mg/kg/day po x4 days, males): Mild (6)
- Kidney: non-inflammatory tubular degeneration, severity (incidence) (Fischer 344 rats [4]; 32 mg/kg/day po x4 days, females): Moderate (4), Marked (2)
- Kidney: non-inflammatory tubular degeneration, severity (incidence) (Fischer 344 rats [4]; 32 mg/kg/day po x4 days, males): Moderate (6)
- Nuclei γH2AX positive, renal cortex (γH2AX [5]; female rat, 16 mg/kg batracylin): 22%
- Nuclei γH2AX positive, renal cortex (γH2AX [5]; female rat, 32 mg/kg batracylin): 15%
- Nuclei γH2AX positive, renal cortex (γH2AX [5]; male rat, 16 mg/kg batracylin): 13%
- Nuclei γH2AX positive, renal cortex (γH2AX [5]; male rat, 32 mg/kg batracylin): 29%
- Bone marrow cellular nuclei γH2AX positive (γH2AX [6]; 4 of 6 low-dose females (16 mg/kg)): Less than 0.5%
- Bone marrow cellular nuclei γH2AX positive (γH2AX [6]; all 6 low-dose males (16 mg/kg)): Less than 0.5%
- Rats displaying evidence of toxicity (clinical signs) (Fischer 344 rats [7]; Day 3, high-dose group (32 mg/kg/day)): all of the rats
- Rats displaying evidence of toxicity (clinical signs) (Fischer 344 rats [7]; Day 3, low-dose group (16 mg/kg/day)): a third of the rats
- Protein casts, severity (Fischer 344 rats [8]): mild to moderate
- Tubular dilation, severity (Fischer 344 rats [8]): mild
- Urothelial atrophy, severity (Fischer 344 rats [8]): mild to moderate
- Urothelial vacuolation, severity (Fischer 344 rats [8]): minimal to mild
- Toxicity of oral batracylin in rats (rats): lethal
- Toxicity of oral batracylin in dogs (dogs): only slight toxicity
- Non-inflammatory tubular degeneration, severity (Fischer 344 rats [9]): moderate
- Tubular epithelial regeneration, severity (Fischer 344 rats [9]): mild

Compound: N-acetylbatracylin [NAB]
- increase of AUC0-24 hr for a 2-fold increase in dose ([1]; rat): 2.9 fold
- AUC0-24 ([1]; rat, 16 mg/kg): 15150 ng·h/mL
- AUC0-∞ ([1]; rat, 16 mg/kg): 15240 ng·h/mL
- Cmax ([1]; rat, 16 mg/kg): 2507 ng/mL
- Kel ([1]; rat, 16 mg/kg): 0.755 h⁻¹
- Tmax ([1]; rat, 16 mg/kg): 4 h
- AUC0-24 ([1]; rat, 32 mg/kg): 44620 ng·h/mL
- AUC0-∞ ([1]; rat, 32 mg/kg): 45170 ng·h/mL
- Cmax ([1]; rat, 32 mg/kg): 7214 ng/mL
- Kel ([1]; rat, 32 mg/kg): 0.108 h⁻¹
- NAB AUC0-24 hr, times greater than the corresponding value for batracylin ([1]; rat, 32 mg/kg): 398 times
- NAB Cmax, times greater than the corresponding value for batracylin ([1]; rat, 32 mg/kg): 611 times
- Tmax ([1]; rat, 32 mg/kg): 4 h
- Systemic levels of NAB, times greater in the rat than in the mouse [10]: approximately 9 times
